Measured values taken from US6267968A, “MDP derivatives and conjugates having haematipoietic function stimulating activity, and compositions containing same” (Vacsyn S.A., priority 1995, dated 2001).
“Also recorded” adds a separate entry of the source.

What was measured:
red cells and platelets = test: 7-day oral treatment with AZT, muradimetide or both, red cell and platelet counts (Example 3); type: in vivo; settings: p.o. once daily for 7 consecutive days; AZT 100 mg/kg, muradimetide 50 mg/kg or both; counts up to day 10
Description: The effect of a 7-day treatment on the number of red cells and of platelets is seen in FIGS. 9 and 10, respectively. The counts are shown as a percentage of those obtained on day 0. Female BALB/c mice (5 per group) are treated once daily for 7 consecutive days with 100 mg/kg of AZT (Δ), 50 mg/kg of muradimetide (.quadrature.) or simultaneously with 100 mg/kg of AZT and 50 mg/kg of muradimetide (.largecircle.). Platelet or red cell counts were done on day 0 and up to 10 days following the beginning of the treatment. No toxicity on the platelets is seen, either with AZT, muradimetide or the mixture of these compounds. The upward trend in their number is apparent between days 4 and 5.

[1] = test system: circulating HSC (GM-CFU, LPP-CFU, HPP-CFU, CAFC, LTC-IC); test: Mobilization of HSC by stage of differentiation, culture of blood mononuclear cells (Example 7); type: in vivo, Balb/c mice; settings: AZT 50 mg/kg, MDM 25 mg/kg or mixture once daily for three days; blood 24 hours after last administration
Description: In all cases, the culture conditions, especially their duration, were chosen to permit an optimal detection of the different populations in question. For this study, the effect of injecting saline (X--), AZT at 50 mg/kg, MDM at 25 mg/kg and the mixture of the two on the number of circulating HSC were compared. The mononuclear cells after purification were cultured for 5 days in order to count the GM-CFU (for granulocyte-macrophage colony forming units), for 28 days to count the low proliferating potential (LPP) colony forming units and the high proliferating potential (HPP) CFU. The CAFC were counted after 14 days of culture. The LTC-IC after 28 days. The results are presented in FIGS. 14a, 14b, 14c and 14d, respectively. The mice (10 Balb/c per group) received once daily and for three consecutive days either physiological saline, or AZT, or MDM or the mixture of the two under the above dose conditions. Twenty-four hours after the last administration, the blood of all the mice in each group was collected. For the experiments depicted in FIGS. 14a, 14b and 14c, the mononuclear cells were then separated on density gradients and cultured in a semisolid medium for a period of 5 days for the GM-CFU and 28 days for the LPP-CFU. […]

[2] = test system: circulating leukocytes, neutrophils and myelocytes; test: Oral Muradimetide with nonmyelotoxic or myelotoxic intravenous doses of AZT, cell counts (Example 8); type: in vivo, female Swiss mice; settings: Muradimetide 25 mg per kg orally 4 hours before AZT i.v. 5 or 40 mg per kg, days 0-3
Description: In this experiment female Swiss mice were injected intravenously with AZT at a dose of 5 or 40 mg per kg on days 0, 1, 2 and 3. On each of the 4 days, and 4 hours before the administration of AZT, groups of mice consisting of 5 individuals received orally either buffer or Muradimetide at a dose of 25 mg per kg.
Cell counts are done on days 0, 1, 2, 3, 4 and 7.
FIG. 3 represents the same experiment in which the myelocytes are counted.

[3] = test system: normal circulating leukocytes (predominantly neutrophils and lymphocytes) and immature circulating leukocytes (myelocytes); test: Muradimetide administered alone intravenously for 4 consecutive days, circulating cell counts (Example 1); type: in vivo, mice; settings: for No. of Lymphocytes / No. of Myelocytes / No. of Neutrophils: 25 mg/kg i.v.; for No. of Lymphocytes / No. of Myelocytes / No. of Neutrophils / No. of Leukocytes: 4 consecutive days; for No. of Leukocytes: Muradimetide 25 mg/kg i.v.
Description: Table 1 below depicts the leukocyte, neutrophil, lymphocyte and myelocyte counts as a function of the time after treatment with Muradimetide alone administered at a dose of 25 mg/kg. The treatment is performed for 4 consecutive days by intravenous injection.

[4] = test system: circulating myelocytes (HSC); test: Mobilization of HSC after combined oral treatment with AZT and Muradimetide (Example 4); type: in vivo, mice; settings: for effect on the mobilization of HSC (myelocyte count, FIG. 11): MDM 25 mg/kg, AZT 50 mg/kg or mixture, oral, days 0-3 and 7-10 (2 weeks); for No. of circulating myelocytes: p.o., one compound alone at 0 h (AZT 50 mg/Kg or Muradimetide 25 mg/Kg), 24 hours after 4 daily administrations
Description: Table 3 below and FIG. 11 show the effect of an oral treatment of mice with Muradimetide before, at the same time as or after AZT administered at 50 mg per kg, on the number of circulating myelocytes tested 24 hours after 4 daily administrations.
The mean number of circulating myelocytes before the treatment lies between 3 and 15×10^4 cells per ml in the 5 groups.
The "P-value" was calculated by the Mann Whitney U Rank test.

[5] = test system: circulating neutrophils, leukocytes, monocytes and myelocytes; test: Comparison of Muradimetide and GM-CSF after intravenous AZT (Example 9); type: in vivo, female Swiss mice; settings: AZT 40 mg per kg i.v. days 0-3; for HSC in the blood (circulating myelocytes, FIG. 7) / leukocyte and neutrophil counts: Muradimetide 25 mg per kg or mGM-CSF 125 μg per kg i.v. 4 hours before
Description: FIGS. 4, 5, 6 and 7 show the effect of a treatment of mice with Muradimetide or with mGM-CSF on the changes in the circulating neutrophils, in the circulating leukocytes or in the circulating monocytes or in the circulating myelocytes, respectively, after an intravenous administration of AZT.
Female Swiss mice were treated intravenously with 40 mg per kg of AZT on days 0, 1, 2 and 3. The groups of mice (5 per group) receive, 4 hours before AZT, either physiological saline, or Muradimetide at 25 mg per kg or mGM-CSF at 125 μg per kg intravenously. Counts are done on days 0, 2, 3, 4 and 8. The asterisks above the histograms indicate that there is a significant difference in the count compared to the values obtained before the treatment on day 0.

[6] = test system: circulating leukocytes, neutrophils and myelocytes; test: Intravenous or oral Muradimetide, cell counts modified by intravenous AZT (Example 2); type: in vivo, male CDI mice
Description: Treatment with AZT alone classically induces a decrease in the number of circulating leukocytes and neutrophils. This decrease is followed by a restoration occurring approximately 4 to 7 days after the beginning of the treatment. When Muradimetide has been administered systemically or orally after a treatment with 40 mg/kg of AZT, there is no fall in the number of cells and, on the contrary, there is a multiplication by at least 1.5 of the number of leukocytes and a tripling of the number of neutrophils, this already occurring after 4 days.
Male CDI mice (5 per group) were injected with AZT at a dose of 40 mg per kg on days 0 to 3. Muradimetide is administered on the same days at a dose of 10 mg per kg intravenously or 50 mg per kg orally. Cell counts are done an day 0 (before the treatment) and on days 3 and 4.

circulating myelocytes = test: Comparison of oral Muradimetide with MDPA after intravenous AZT, myelocyte count (Example 10); type: in vivo, female Swiss mice; settings: AZT 40 mg per kg i.v. days 0-3; MDPA 25 mg per kg 4 hours before AZT
Description: In this experiment, female Swiss mice were treated intravenously with 40 mg per kg of AZT on days 0, 1, 2 and 3. Groups of 5 mice received on the same four days, and 4 hours before AZT, either physiological saline, or MDPA at a dose of 25 mg per kg or Muradimetide orally at a dose of 25 mg per kg. Myelocyte counts were carried out on days 0, 2, 3, 4 and 8. The asterisks above the histograms have the same meaning as in the previous diagrams.

[7] = Muradimetide i.v. 10 mg/kg with AZT i.v. 40 mg/kg, day 0 (before the treatment)
[8] = Muradimetide i.v. 10 mg/kg with AZT i.v. 40 mg/kg, day 3
[9] = Muradimetide i.v. 10 mg/kg with AZT i.v. 40 mg/kg, day 4
[10] = Muradimetide p.o. 50 mg/Kg with AZT i.v. 40 mg/kg, day 0 (before the treatment)
[11] = Muradimetide p.o. 50 mg/Kg with AZT i.v. 40 mg/kg, day 3
[12] = Muradimetide p.o. 50 mg/Kg with AZT i.v. 40 mg/kg, day 4
[13] = Muradimetide systemically or orally after treatment with 40 mg/kg of AZT, after 4 days

COC(=O)CC[C@@H](NC(=O)[C@H](C)NC(=O)[C@@H](C)O[C@H]1[C@H](O)[C@@H](CO)OC(O)[C@@H]1NC(C)=O)C(=O)OC (stereo partly drawn) [Muradimetide, Nac--Mur--L--Ala--D--Glu--[OCH3]--OCH3]
toxicity on the platelets (red cells and platelets): No toxicity | effect on the number of circulating HSC (GM-CFU, LPP-CFU, HPP-CFU, CAFC; FIGS. 14a-14d) [1]: clearly apparent | time of maximum effect on leukocyte, neutrophil and myelocyte counts (FIGS. 1-3) [2]: 4 days | No. of Lymphocytes ([3]; day 0): 38 ± 12 × 10^5 /ml | No. of Myelocytes ([3]; day 0): 7 ± 6 × 10^4 /ml | No. of Neutrophils ([3]; day 0): 11 ± 3 × 10^5 /ml | No. of Lymphocytes ([3]; day 2): 41 ± 17 × 10^5 /ml | No. of Myelocytes ([3]; day 2): 8 ± 8 × 10^4 /ml | No. of Neutrophils ([3]; day 2): 10 ± 3 × 10^5 /ml | No. of Lymphocytes ([3]; day 3): 35 ± 13 × 10^5 /ml | No. of Myelocytes ([3]; day 3): 40 ± 5 × 10^4 /ml | No. of Neutrophils ([3]; day 3): 13 ± 5 × 10^5 /ml | No. of Lymphocytes ([3]; day 4): 34 ± 8 × 10^5 /ml | No. of Myelocytes ([3]; day 4): 72 ± 27 × 10^4 /ml | No. of Neutrophils ([3]; day 4): 12 ± 4 × 10^5 /ml | No. of Lymphocytes ([3]; day 7): 38 ± 10 × 10^5 /ml | No. of Myelocytes ([3]; day 7): 4 ± 4 × 10^4 /ml | No. of Neutrophils ([3]; day 7): 12 ± 4 × 10^5 /ml | No. of Leukocytes ([3]; day 2): 52 ± 12 × 10^5 /ml | No. of Leukocytes ([3]; day 3): 52 ± 17 × 10^5 /ml | No. of Leukocytes ([3]; day 4): 52 ± 15 × 10^5 /ml | No. of Leukocytes ([3]; day 7): 50 ± 13 × 10^5 /ml | No. of Leukocytes ([3]; day of measurement 0): 50 ± 14 × 10^5 /ml | increase in the number of circulating myelocytes ([3]; Muradimetide administered alone, days 3 and 4): highly significant | effect on the mobilization of HSC (myelocyte count, FIG. 11) [4]: significant effect | No. of circulating myelocytes [4]: 17 ± 15 × 10^4 /ml | HSC in the blood (circulating myelocytes, FIG. 7) [5]: very strong elevation; also recorded: mobilizes HSC | leukocyte and neutrophil counts [5]: markedly pronounced effect | Leukocytes ([6]; Muradimetide i.v. 10 mg/kg days 0-3 with AZT i.v. 40 mg/kg, day 0 (before the treatment)): 6.0 ± 3.4 × 10^6 /ml | Leukocytes ([6]; Muradimetide i.v. 10 mg/kg days 0-3 with AZT i.v. 40 mg/kg, day 3): 5.9 ± 2.9 × 10^6 /ml | Leukocytes ([6]; Muradimetide i.v. 10 mg/kg days 0-3 with AZT i.v. 40 mg/kg, day 4): 7.6 ± 1.6 × 10^6 /ml | Myelocytes [6, 7]: 5 ± 7 × 10^4 /ml | Neutrophils [6, 7]: 2.0 ± 1.3 × 10^6 /ml | Myelocytes [6, 8]: 145 ± 83 × 10^4 /ml | Neutrophils [6, 8]: 1.5 ± 0.8 × 10^6 /ml | Myelocytes [6, 9]: 117 ± 46 × 10^4 /ml | Neutrophils [6, 9]: 4.6 ± 1.5 × 10^6 /ml | Leukocytes ([6]; Muradimetide p.o. 50 mg/Kg days 0-3 with AZT i.v. 40 mg/kg, day 0 (before the treatment)): 4.8 ± 0.4 × 10^6 /ml | Leukocytes ([6]; Muradimetide p.o. 50 mg/Kg days 0-3 with AZT i.v. 40 mg/kg, day 3): 6.1 ± 1.4 × 10^6 /ml | Leukocytes ([6]; Muradimetide p.o. 50 mg/Kg days 0-3 with AZT i.v. 40 mg/kg, day 4): 8.1 ± 2.9 × 10^6 /ml | Myelocytes [6, 10]: 14 ± 13 × 10^4 /ml | Neutrophils [6, 10]: 1.4 ± 0.5 × 10^6 /ml | Myelocytes [6, 11]: 123 ± 55 × 10^4 /ml | Neutrophils [6, 11]: 1.6 ± 0.5 × 10^6 /ml | Myelocytes [6, 12]: 138 ± 59 × 10^4 /ml | Neutrophils [6, 12]: 4.3 ± 2.47 × 10^6 /ml | increase of the number of neutrophils [6, 13]: tripling | multiplication of the number of leukocytes [6, 13]: at least 1.5 | percentage of myelocytes or of promyelocytes ([6]; with AZT 40 mg/kg i.v., irrespective of mode of administration of Muradimetide): spectacular increase

Cc1cn([C@H]2C[C@H](N=[N+]=[N-])[C@@H](CO)O2)c(=O)[nH]c1=O [AZT, 3'-azido-3'-deoxythymidine, reference compound]
effect on the mobilization of HSC (myelocyte count, FIG. 11) [4]: no effect | No. of circulating myelocytes [4]: 6 ± 8 × 10^4 /ml

CC(=O)N[C@H]1C(O)O[C@H](CO)[C@@H](O)[C@@H]1O[C@H](C)C(=O)N[C@@H](C)C(=O)N[C@H](CCC(=O)O)C(=O)O (stereo partly drawn) [MDPA, Nac--Mur--L--Ala--D--Glu]
antimyelotoxic effect and mobilization of HSC in the blood circulation (myelocyte count, FIG. 8) (circulating myelocytes): not occurring

B1: GM-CSF: recombinant mouse GM-CSF, lymphokine customarily used to stimulate myelocytes (protein, UniProt P01587 18-141, looked up)
Granulocyte-macrophage …: APTRSPITVTRPWKHVEAIKEALNLLDDMPVTLNEEVEVVSNEFSFKKLTCVQTRLKIFEQGLRGNFTKLKGALNMTASYYQTYCPPTPETDCETQVTTYADFIDSLKTFLTDIPFECKKPGQK
HSC in the blood (circulating myelocytes, FIG. 7) [5]: does not do so | leukocyte and neutrophil counts [5]: do not display an increase | number of monocytes ([5]; mGM-CSF 125 μg per kg i.v. 4 hours before): increase in the number of monocytes
